molecular target: T1, AM2 receptor (1321N1 cells transfected with CALCRL+RAMP3) (Homo sapiens, UniProt O60896+Q16602); experiment: AM2 receptor inhibition, LANCE cAMP agonist-antagonist competition assay; type: cell-based; details: inhibition of AM induced cAMP activation, read-out: AM2 D2 protocol: pIC50 (converted)
T1 construct: host or cells: 1321N1 cells
How it was run: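 1321N1 cells co-expressing CALCRL and RAMP3 (2500/well) were preincubated with compound for 30 min at room temperature, then stimulated with adrenomedullin at its EC50 dose for 15 min in HBSS/HEPES/BSA buffer, pH 7.4. cAMP was measured by LANCE TR-FRET and normalised to forskolin (100%) and vehicle (0%) controls.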

T1 sequence (Q16602 23-461): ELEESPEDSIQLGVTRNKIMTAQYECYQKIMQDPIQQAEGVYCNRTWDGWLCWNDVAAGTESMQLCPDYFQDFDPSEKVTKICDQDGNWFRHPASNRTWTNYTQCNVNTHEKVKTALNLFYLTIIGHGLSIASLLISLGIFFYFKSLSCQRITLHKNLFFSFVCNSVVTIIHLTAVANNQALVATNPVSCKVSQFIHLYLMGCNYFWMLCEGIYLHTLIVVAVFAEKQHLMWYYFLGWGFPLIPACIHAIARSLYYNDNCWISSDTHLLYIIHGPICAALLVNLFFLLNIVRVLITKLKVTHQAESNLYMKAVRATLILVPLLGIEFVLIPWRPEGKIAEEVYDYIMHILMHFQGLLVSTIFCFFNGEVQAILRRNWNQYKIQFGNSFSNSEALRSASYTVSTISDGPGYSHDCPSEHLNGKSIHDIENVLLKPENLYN
T1 sequence (O60896 24-148): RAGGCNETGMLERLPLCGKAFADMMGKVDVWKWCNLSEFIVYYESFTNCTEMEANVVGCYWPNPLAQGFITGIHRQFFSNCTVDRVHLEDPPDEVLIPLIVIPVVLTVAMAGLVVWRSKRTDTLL

Point of comparison: CCNCc1ccccc1CN(CC(=O)Nc1ccc2c(c1)C[C@@]1(C2)C(=O)Nc2ncccc21)C(=O)C1(CC)CCN(C(C)=O)CC1 [Example 134, (R)-1-Acetyl-4-ethyl-N-(2-((ethylamino)methyl)benzyl)-N-(2-oxo-2-((2′-oxo-1,1′,2′,3-tetrahydrospiro[indene-2,3′-pyrrolo[2,3-b]pyridin]-5-yl)amino)ethyl)piperidine-4-carboxamide], IC50 115 nM. Against it:
- CCC1(C(=O)N(CC(=O)Nc2ccc3c(c2)C[C@@]2(C3)C(=O)Nc3ncccc32)Cc2ccccc2CNC)CCN(C(=O)OC)CC1 [Example 116, (R)-Methyl 4-ethyl-4-((2-((methylamino)methyl)benzyl)(2-oxo-2-((2′-oxo-1,1′,2′,3-tetrahydrospiro[indene-2,3′-pyrrolo[2,3-b]pyridin]-5-yl)amino)ethyl)carbamoyl)piperidine-1-carboxylate] — 5.8-fold lower, 20 nM
- CCC1(C(=O)N(CC(=O)Nc2ccc3c(c2)C[C@@]2(C3)C(=O)Nc3ncccc32)Cc2ccccc2CNC)CCN(S(=O)(=O)NC)CC1 [Example 117, (R)-4-Ethyl-N-(2-((methylamino)methyl)benzyl)-1-(N-methylsulfamoyl)-N-(2-oxo-2-((2′-oxo-1,1′,2′,3-tetrahydrospiro[indene-2,3′-pyrrolo[2,3-b]pyridin]-5-yl)amino)ethyl)piperidine-4-carboxamide] — 25-fold lower, 4.57 nM
- CCC1(C(=O)N(CC(=O)Nc2ccc3c(c2)C[C@@]2(C3)C(=O)Nc3ncccc32)Cc2ccccc2CNC)CCN(S(=O)(=O)N(C)C)CC1 [Example 118, (R)-1-(N,N-Dimethylsulfamoyl)-4-ethyl-N-(2-((methylamino)methyl)benzyl)-N-(2-oxo-2-((2′-oxo-1,1′,2′,3-tetrahydrospiro[indene-2,3′-pyrrolo[2,3-b]pyridin]-5-yl)amino)ethyl)piperidine-4-carboxamide] — 3.3-fold lower, 34.7 nM
- CNCc1ccccc1CN(CC(=O)Nc1ccc2c(c1)C[C@@]1(C2)C(=O)Nc2ncccc21)C(=O)C1(CC(F)(F)F)CCN(C(C)=O)CC1 [Example 120, (R)-1-Acetyl-N-(2-((methylamino)methyl)benzyl)-N-(2-oxo-2-((2′-oxo-1,1′,2′,3-tetrahydrospiro[indene-2,3′-pyrrolo[2,3-b]pyridin]-5-yl)amino)ethyl)-4-(2,2,2-trifluoroethyl)piperidine-4-carboxamide] — 5-fold lower, 22.9 nM
- CNCc1ccccc1CN(CC(=O)Nc1ccc2c(c1)C[C@@]1(C2)C(=O)Nc2ncccc21)C(=O)C1(CC(F)(F)F)CCN(C(=O)N(C)C)CC1 [Example 121, (R)—N1,N1-Dimethyl-N4-(2-((methylamino)methyl)benzyl)-N4-(2-oxo-2-((2′-oxo-1,1′,2′,3-tetrahydrospiro[indene-2,3′-pyrrolo[2,3-b]pyridin]-5-yl)amino)ethyl)-4-(2,2,2-trifluoroethyl)piperidine-1,4-dicarboxamide] — 11-fold lower, 10.5 nM
- CNCc1ccccc1CN(CC(=O)Nc1ccc2c(c1)C[C@@]1(C2)C(=O)Nc2ncccc21)C(=O)C1(CC2CC2)CCN(C(C)=O)CC1 [Example 122, (R)-1-Acetyl-4-(cyclopropylmethyl)-N-(2-((methylamino)methyl)benzyl)-N-(2-oxo-2-((2′-oxo-1,1′,2′,3-tetrahydrospiro[indene-2,3′-pyrrolo[2,3-b]pyridin]-5-yl)amino)ethyl)piperidine-4-carboxamide] — 14-fold lower, 8.32 nM
- CNCc1ccccc1CN(CC(=O)Nc1ccc2c(c1)C[C@@]1(C2)C(=O)Nc2ncccc21)C(=O)C1(C(C)C)CCN(C(C)=O)CC1 [Example 123, (R)-1-Acetyl-4-isopropyl-N-(2-((methylamino)methyl)benzyl)-N-(2-oxo-2-((2′-oxo-1,1′,2′,3-tetrahydrospiro[indene-2,3′-pyrrolo[2,3-b]pyridin]-5-yl)amino)ethyl)piperidine-4-carboxamide] — 1.9-fold higher, 214 nM
- CNCc1ccccc1CN(CC(=O)Nc1ccc2c(c1)C[C@@]1(C2)C(=O)Nc2ncccc21)C(=O)C1(CC(C)C)CCN(C(C)=O)CC1 [Example 125] — 5.4-fold lower, 21.4 nM
- CNCc1ccccc1CN(CC(=O)Nc1ccc2c(c1)C[C@@]1(C2)C(=O)Nc2ncccc21)C(=O)C1(COC)CCN(C(C)=O)CC1 [Example 126, (R)-1-Acetyl-4-(methoxymethyl)-N-(2-((methylamino)methyl)benzyl)-N-(2-oxo-2-((2′-oxo-1,1′,2′,3-tetrahydrospiro[indene-2,3′-pyrrolo[2,3-b]pyridin]-5-yl)amino)ethyl)piperidine-4-carboxamide] — 1.5-fold higher, 174 nM
- CNCc1ccccc1CN(CC(=O)Nc1ccc2c(c1)C[C@@]1(C2)C(=O)Nc2ncccc21)C(=O)C1(OC)CCN(C(C)=O)CC1 [Example 127, 1-Acetyl-4-methoxy-N-[[2-(methylaminomethyl)phenyl]methyl]-N-[2-oxo-2-[[(3R)-2-oxospiro[1H-pyrrolo[2,3-b]pyridine-3,2′-indane]-5′-yl]amino]ethyl]piperidine-4-carboxamide] — 4.7-fold lower, 24.5 nM
- CNCc1ccccc1CN(CC(=O)Nc1cc2c(cc1C)CC1(C2)C(=O)Nc2ncccc21)C(=O)C1(C)CCNCC1 (stereo not shown) [Example 128, 4-Methyl-N-(2-((5-methyl-2′-oxo-1,1′,2′,3-tetrahydrospiro[indene-2,3′-pyrrolo[2,3-b]pyridin]-6-yl)amino)-2-oxoethyl)-N-(2-((methylamino)methyl)benzyl)piperidine-4-carboxamide] — within 1.5-fold, 87.1 nM
- CNCc1ccccc1CN(CC(=O)Nc1cc2c(cc1C)CC1(C2)C(=O)Nc2ncccc21)C(=O)C1(C)CCN(C(C)=O)CC1 (stereo not shown) [Example 129, Acetyl-4-methyl-N-(2-((5-methyl-2′-oxo-1,1′,2′,3-tetrahydrospiro[indene-2,3′-pyrrolo[2,3-b]pyridin]-6-yl)amino)-2-oxoethyl)-N-(2-((methylamino)methyl)benzyl)piperidine-4-carboxamide] — within 1.5-fold, 107 nM
- CC(=O)N1CCC(C)(C(=O)N(CC(=O)Nc2cc3c(cc2C)CC2(C3)C(=O)Nc3ncccc32)Cc2ccccc2CN)CC1 (stereo not shown) [Example 130, 1-Acetyl-N-(2-(aminomethyl)benzyl)-4-methyl-N-(2-((5-methyl-2′-oxo-1,1′,2′,3-tetrahydrospiro[indene-2,3′-pyrrolo[2,3-b]pyridin]-6-yl)amino)-2-oxoethyl)piperidine-4-carboxamide] — 1.7-fold lower, 69.2 nM
- CC1(C(=O)N(CC(=O)Nc2ccc3c(c2)C[C@@]2(C3)C(=O)Nc3ncccc32)Cc2ccccc2CN)CCNCC1 [Example 131, (R)—N-(2-(Aminomethyl)benzyl)-4-methyl-N-(2-oxo-2-((2′-oxo-1,1′,2′,3-tetrahydrospiro[indene-2,3′-pyrrolo[2,3-b]pyridin]-5-yl)amino)ethyl)piperidine-4-carboxamide] — 2.6-fold higher, 302 nM
- CC(=O)N1CCC(C)(C(=O)N(CC(=O)Nc2ccc3c(c2)C[C@@]2(C3)C(=O)Nc3ncccc32)Cc2ccccc2CN)CC1 [Example 132, (R)-1-Acetyl-N-(2-(aminomethyl)benzyl)-4-methyl-N-(2-oxo-2-((2′-oxo-1,1′,2′,3-tetrahydrospiro[indene-2,3′-pyrrolo[2,3-b]pyridin]-5-yl)amino)ethyl)piperidine-4-carboxamide] — within 1.5-fold, 148 nM
- CCC1(C(=O)N(CC(=O)Nc2ccc3c(c2)C[C@@]2(C3)C(=O)Nc3ncccc32)Cc2ccccc2CN)CCN(C(C)=O)CC1 [Example 133, (R)-1-Acetyl-N-(2-(aminomethyl)benzyl)-4-ethyl-N-(2-oxo-2-((2′-oxo-1,1′,2′,3-tetrahydrospiro[indene-2,3′-pyrrolo[2,3-b]pyridin]-5-yl)amino)ethyl)piperidine-4-carboxamide] — 17-fold lower, 6.92 nM
- CNCc1ccc(F)cc1CN(CC(=O)Nc1ccc2c(c1)C[C@@]1(C2)C(=O)Nc2ncccc21)C(=O)C1(C)CCNCC1 [Example 135, (R)—N-(5-Fluoro-2-((methylamino)methyl)benzyl)-4-methyl-N-(2-oxo-2-((2′-oxo-1,1′,2′,3-tetrahydrospiro[indene-2,3′-pyrrolo[2,3-b]pyridin]-5-yl)amino)ethyl)piperidine-4-carboxamide] — 2.1-fold lower, 55 nM
- CNCc1cc(F)ccc1CN(CC(=O)Nc1ccc2c(c1)C[C@@]1(C2)C(=O)Nc2ncccc21)C(=O)C1(C)CCNCC1 [Example 137, (R)—N-[[4-Fluoro-2-(methylaminomethyl)phenyl]methyl]-4-methyl-N-[2-oxo-2-[[(3R)-2-oxospiro[1H-pyrrolo[2,3-b]pyridine-3,2′-indane]-5′-yl]amino]ethyl]piperidine-4-carboxamide] — 3.6-fold higher, 417 nM
- CNCc1cc(F)ccc1CN(CC(=O)Nc1ccc2c(c1)C[C@@]1(C2)C(=O)Nc2ncccc21)C(=O)C1(C)CCN(C(C)=O)CC1 [Example 138, (R)-1-Acetyl-N-[[4-fluoro-2-(methylaminomethyl)phenyl]methyl]-4-methyl-N-[2-oxo-2-[[(3R)-2-oxospiro[1H-pyrrolo[2,3-b]pyridine-3,2′-indane]-5′-yl]amino]ethyl]piperidine-4-carboxamide] — 4.4-fold higher, 501 nM
- CNCc1ccccc1CN(CC(=O)Nc1ccc2c(c1)CC1(C2)C(=O)Nc2ncccc21)C(=O)C12CCN(CC1)CC2 (stereo not shown) [Example 139, N-(2-((Methylamino)methyl)benzyl)-N-(2-oxo-2-((2′-oxo-1,1′,2′,3-tetrahydrospiro[indene-2,3′-pyrrolo[2,3-b]pyridin]-5-yl)amino)ethyl)quinuclidine-4-carboxamide] — 2-fold lower, 56.2 nM
- CCC1(C(=O)N(CC(=O)Nc2ccc3c(c2)C[C@@]2(C3)C(=O)Nc3ncccc32)Cc2ccccc2CNC)CCN(C)C(=O)C1 (stereo partly drawn) [Example 140, 4-Ethyl-1-methyl-N-(2-((methylamino)methyl)benzyl)-2-oxo-N-(2-oxo-2-(((R)-2′-oxo-1,1′,2′,3-tetrahydrospiro[indene-2,3′-pyrrolo[2,3-b]pyridin]-5-yl)amino)ethyl)piperidine-4-carboxamide] — 3.6-fold higher, 417 nM

From patent US20230036854A1, “HETEROCYCLIC SPIRO-COMPOUNDS AS AM2 RECEPTOR INHIBITORS” (THE UNIVERSITY OF SHEFFIELD, priority 2018, published 2023)
